According to US6339042B1, “Herbicidal N-cyclohexadienyl heteroaryloxyacetamides” (American Cyanamid Co., priority 1999, dated 2002):

What was measured:
Glycine max [1] = assay: Post-emergence herbicidal evaluation, GLXMA; conditions: three weeks after treatment
Zea mays [2] = assay: Pre-emergence herbicidal evaluation, ZEAMX; format: in vivo; conditions: three weeks after treatment
Excerpt: (§1) The treated pots are then placed on greenhouse benches, watered and cared for in accordance with conventional greenhouse procedures.

Triticum aestivum [3] = assay: Pre-emergence herbicidal evaluation, TRZAW; format: in vivo; conditions: three weeks after treatment
Excerpt: as §1

Echinochloa crus-galli [4] = assay: Post-emergence herbicidal evaluation, ECHCG; conditions: three weeks after treatment
Procedure: The compounds of the invention are tested for pre- and post-emergence herbicidal activity.
(§2) Each pot is examined three weeks after treatment and phytotoxicity is assessed according to the rating system set forth below.
(§3) These acetone solutions are diluted with water and the resulting formulations applied at dosage levels equivalent of about 0.4 to 0.1 kg per hectare of test compound per pot. After spraying the plants are placed on greenhouse benches and are cared for in the usual manner, commensurate with conventional greenhouse practices.

Apera spica venti [5] = assay: Pre-emergence herbicidal evaluation, APESV; format: in vivo; conditions: three weeks after treatment
Excerpt: as §1

Oryza sativum [6] = assay: Pre-emergence herbicidal evaluation, ORYSA; format: in vivo; conditions: three weeks after treatment
Excerpt: as §1

Setaria viridis [7] = assay: Post-emergence herbicidal evaluation, SETVI; conditions: three weeks after treatment
Triticum aestivum [8] = assay: Post-emergence herbicidal evaluation, TRZAW; conditions: three weeks after treatment
Procedure: as §2, §3

Alopecurus myosuroides [9] = assay: Pre-emergence herbicidal evaluation, ALOMY; format: in vivo; conditions: three weeks after treatment
Excerpt: as §1

Amaranthus tuberculatus [10] = assay: Post-emergence herbicidal evaluation, AMATA; format: in vivo; conditions: three weeks after treatment
Oryza sativum [11] = assay: Post-emergence herbicidal evaluation, ORYSA; conditions: three weeks after treatment
Amaranthus tuberculatus [12] = assay: Pre-emergence herbicidal evaluation, AMATA; format: in vivo; conditions: three weeks after treatment
Excerpt: as §1

Apera spica venti [13] = assay: Post-emergence herbicidal evaluation, APESV; conditions: three weeks after treatment
Alopecurus myosuroides [14] = assay: Post-emergence herbicidal evaluation, ALOMY; conditions: three weeks after treatment
Zea mays [15] = assay: Post-emergence herbicidal evaluation, ZEAMX; conditions: three weeks after treatment
Hordeum vulgare [16] = assay: Post-emergence herbicidal evaluation, HORVW; conditions: three weeks after treatment
Galium aparine = assay: Post-emergence herbicidal evaluation, GALAP; conditions: three weeks after treatment
Hordeum vulgare [17] = assay: Pre-emergence herbicidal evaluation, HORVW; format: in vivo; conditions: three weeks after treatment
Excerpt: as §1

Echinochloa crus-galli [18] = assay: Pre-emergence herbicidal evaluation, ECHCG; format: in vivo; conditions: three weeks after treatment
Excerpt: as §1

Lolium perenne [19] = assay: Pre-emergence herbicidal evaluation, LOLPE; format: in vivo; conditions: three weeks after treatment
Excerpt: as §1

Lolium perenne [20] = assay: Post-emergence herbicidal evaluation, LOLPE; conditions: three weeks after treatment
Glycine max [21] = assay: Pre-emergence herbicidal evaluation, GLXMA; format: in vivo; conditions: three weeks after treatment
Excerpt: as §1

Setaria viridis [22] = assay: Pre-emergence herbicidal evaluation, SETVI; format: in vivo; conditions: three weeks after treatment
Excerpt: as §1

Structure (SMILES): CC1=CC(N(C)C(=O)COc2nnc(C(F)(F)F)s2)=CC(C)(C)C1 [Example 3]
- phytotoxicity rating GLXMA (Glycine max [1]; 0.200 kg/ha): 2 (2 - Slight effect)
- phytotoxicity rating GLXMA (Glycine max [1]; 0.400 kg/ha): 4 (4 - Injury)
- phytotoxicity rating ZEAMX (Zea mays [2]; 0.100 kg/ha): 0 (0 - No effect)
- phytotoxicity rating ZEAMX (Zea mays [2]; 0.200 kg/ha): 1 (1 - Trace effect)
- phytotoxicity rating ZEAMX (Zea mays [2]; 0.400 kg/ha): 3 (3 - Moderate effect)
- phytotoxicity rating ZEAMX (Zea mays [2]; 0.800 kg/ha): 7 (7 - Good herbicidal effect)
- phytotoxicity rating TRZAW (Triticum aestivum [3]; 0.100 kg/ha): 0 (0 - No effect)
- phytotoxicity rating TRZAW (Triticum aestivum [3]; 0.200 kg/ha): 1 (1 - Trace effect)
- phytotoxicity rating TRZAW (Triticum aestivum [3]; 0.400 kg/ha): 1 (1 - Trace effect)
- phytotoxicity rating TRZAW (Triticum aestivum [3]; 0.800 kg/ha): 3 (3 - Moderate effect)
- phytotoxicity rating ECHCG (Echinochloa crus-galli [4]; 0.200 kg/ha): 1 (1 - Trace effect)
- phytotoxicity rating ECHCG (Echinochloa crus-galli [4]; 0.400 kg/ha): 4 (4 - Injury)
- phytotoxicity rating APESV (Apera spica venti [5]; 0.100 kg/ha): 3 (3 - Moderate effect)
- phytotoxicity rating APESV (Apera spica venti [5]; 0.200 kg/ha): 6 (6 - Herbicidal effect)
- phytotoxicity rating APESV (Apera spica venti [5]; 0.400 kg/ha): 8 (8 - Approaching complete kill)
- phytotoxicity rating APESV (Apera spica venti [5]; 0.800 kg/ha): 9 (9 - Complete kill)
- phytotoxicity rating ORYSA (Oryza sativum [6]; 0.100 kg/ha): 1 (1 - Trace effect)
- phytotoxicity rating ORYSA (Oryza sativum [6]; 0.200 kg/ha): 3 (3 - Moderate effect)
- phytotoxicity rating ORYSA (Oryza sativum [6]; 0.400 kg/ha): 6 (6 - Herbicidal effect)
- phytotoxicity rating ORYSA (Oryza sativum [6]; 0.800 kg/ha): 6 (6 - Herbicidal effect)
- phytotoxicity rating SETVI (Setaria viridis [7]; 0.200 kg/ha): 0 (0 - No effect)
- phytotoxicity rating SETVI (Setaria viridis [7]; 0.400 kg/ha): 0 (0 - No effect)
- phytotoxicity rating TRZAW (Triticum aestivum [8]; 0.200 kg/ha): 1 (1 - Trace effect)
- phytotoxicity rating TRZAW (Triticum aestivum [8]; 0.400 kg/ha): 3 (3 - Moderate effect)
- phytotoxicity rating ALOMY (Alopecurus myosuroides [9]; 0.100 kg/ha): 6 (6 - Herbicidal effect)
- phytotoxicity rating ALOMY (Alopecurus myosuroides [9]; 0.200 kg/ha): 8 (8 - Approaching complete kill)
- phytotoxicity rating ALOMY (Alopecurus myosuroides [9]; 0.400 kg/ha): 8 (8 - Approaching complete kill)
- phytotoxicity rating ALOMY (Alopecurus myosuroides [9]; 0.800 kg/ha): 9 (9 - Complete kill)
- phytotoxicity rating AMATA (Amaranthus tuberculatus [10]; 0.200 kg/ha): 0 (0 - No effect)
- phytotoxicity rating AMATA (Amaranthus tuberculatus [10]; 0.400 kg/ha): 0 (0 - No effect)
- phytotoxicity rating ORYSA (Oryza sativum [11]; 0.200 kg/ha): 0 (0 - No effect)
- phytotoxicity rating ORYSA (Oryza sativum [11]; 0.400 kg/ha): 2 (2 - Slight effect)
- phytotoxicity rating AMATA (Amaranthus tuberculatus [12]; 0.100 kg/ha): 0 (0 - No effect)
- phytotoxicity rating AMATA (Amaranthus tuberculatus [12]; 0.200 kg/ha): 0 (0 - No effect)
- phytotoxicity rating AMATA (Amaranthus tuberculatus [12]; 0.400 kg/ha): 6 (6 - Herbicidal effect)
- phytotoxicity rating AMATA (Amaranthus tuberculatus [12]; 0.800 kg/ha): 8 (8 - Approaching complete kill)
- phytotoxicity rating APESV (Apera spica venti [13]; 0.200 kg/ha): 6 (6 - Herbicidal effect)
- phytotoxicity rating APESV (Apera spica venti [13]; 0.400 kg/ha): 3 (3 - Moderate effect)
- phytotoxicity rating ALOMY (Alopecurus myosuroides [14]; 0.200 kg/ha): 4 (4 - Injury)
- phytotoxicity rating ALOMY (Alopecurus myosuroides [14]; 0.400 kg/ha): 7 (7 - Good herbicidal effect)
- phytotoxicity rating ZEAMX (Zea mays [15]; 0.200 kg/ha): 0 (0 - No effect)
- phytotoxicity rating ZEAMX (Zea mays [15]; 0.400 kg/ha): 0 (0 - No effect)
- phytotoxicity rating HORVW (Hordeum vulgare [16]; 0.200 kg/ha): 0 (0 - No effect)
- phytotoxicity rating HORVW (Hordeum vulgare [16]; 0.400 kg/ha): 2 (2 - Slight effect)
- phytotoxicity rating GALAP (Galium aparine; 0.200 kg/ha): 4 (4 - Injury)
- phytotoxicity rating GALAP (Galium aparine; 0.400 kg/ha): 5 (5 - Definite injury)
- melting point: 54 to 57 °C
- phytotoxicity rating HORVW (Hordeum vulgare [17]; 0.100 kg/ha): 0 (0 - No effect)
- phytotoxicity rating HORVW (Hordeum vulgare [17]; 0.200 kg/ha): 1 (1 - Trace effect)
- phytotoxicity rating HORVW (Hordeum vulgare [17]; 0.400 kg/ha): 1 (1 - Trace effect)
- phytotoxicity rating HORVW (Hordeum vulgare [17]; 0.800 kg/ha): 4 (4 - Injury)
- phytotoxicity rating ECHCG (Echinochloa crus-galli [18]; 0.100 kg/ha): 6 (6 - Herbicidal effect)
- phytotoxicity rating ECHCG (Echinochloa crus-galli [18]; 0.200 kg/ha): 8 (8 - Approaching complete kill)
- phytotoxicity rating ECHCG (Echinochloa crus-galli [18]; 0.400 kg/ha): 8 (8 - Approaching complete kill)
- phytotoxicity rating ECHCG (Echinochloa crus-galli [18]; 0.800 kg/ha): 9 (9 - Complete kill)
- phytotoxicity rating LOLPE (Lolium perenne [19]; 0.100 kg/ha): 3 (3 - Moderate effect)
- phytotoxicity rating LOLPE (Lolium perenne [19]; 0.200 kg/ha): 7 (7 - Good herbicidal effect)
- phytotoxicity rating LOLPE (Lolium perenne [19]; 0.400 kg/ha): 9 (9 - Complete kill)
- phytotoxicity rating LOLPE (Lolium perenne [19]; 0.800 kg/ha): 9 (9 - Complete kill)
- phytotoxicity rating LOLPE (Lolium perenne [20]; 0.200 kg/ha): 7 (7 - Good herbicidal effect)
- phytotoxicity rating LOLPE (Lolium perenne [20]; 0.400 kg/ha): 7 (7 - Good herbicidal effect)
- phytotoxicity rating GLXMA (Glycine max [21]; 0.100 kg/ha): 0 (0 - No effect)
- phytotoxicity rating GLXMA (Glycine max [21]; 0.200 kg/ha): 0 (0 - No effect)
- phytotoxicity rating GLXMA (Glycine max [21]; 0.400 kg/ha): 0 (0 - No effect)
- phytotoxicity rating GLXMA (Glycine max [21]; 0.800 kg/ha): 0 (0 - No effect)
- phytotoxicity rating SETVI (Setaria viridis [22]; 0.100 kg/ha): 6 (6 - Herbicidal effect)
- phytotoxicity rating SETVI (Setaria viridis [22]; 0.200 kg/ha): 8 (8 - Approaching complete kill)
- phytotoxicity rating SETVI (Setaria viridis [22]; 0.400 kg/ha): 8 (8 - Approaching complete kill)
- phytotoxicity rating SETVI (Setaria viridis [22]; 0.800 kg/ha): 9 (9 - Complete kill)
